# Source: ChEMBL document CHEMBL5230131, “Modern trends in diuretics development” (Eur J Med Chem, 2020)
# Experiments:
# Pendrin [1] = biological target: T1, Pendrin (Mus musculus, UniProt Q9R155); assay: Inhibition of mouse Pendrin stably expressed in FRT cells with YFP assessed as inhibition of pendrin mediated Cl-/SCN- exchange by fluorescence assay; format: cell-based
# T1 sequence (Q9R155 whole entry): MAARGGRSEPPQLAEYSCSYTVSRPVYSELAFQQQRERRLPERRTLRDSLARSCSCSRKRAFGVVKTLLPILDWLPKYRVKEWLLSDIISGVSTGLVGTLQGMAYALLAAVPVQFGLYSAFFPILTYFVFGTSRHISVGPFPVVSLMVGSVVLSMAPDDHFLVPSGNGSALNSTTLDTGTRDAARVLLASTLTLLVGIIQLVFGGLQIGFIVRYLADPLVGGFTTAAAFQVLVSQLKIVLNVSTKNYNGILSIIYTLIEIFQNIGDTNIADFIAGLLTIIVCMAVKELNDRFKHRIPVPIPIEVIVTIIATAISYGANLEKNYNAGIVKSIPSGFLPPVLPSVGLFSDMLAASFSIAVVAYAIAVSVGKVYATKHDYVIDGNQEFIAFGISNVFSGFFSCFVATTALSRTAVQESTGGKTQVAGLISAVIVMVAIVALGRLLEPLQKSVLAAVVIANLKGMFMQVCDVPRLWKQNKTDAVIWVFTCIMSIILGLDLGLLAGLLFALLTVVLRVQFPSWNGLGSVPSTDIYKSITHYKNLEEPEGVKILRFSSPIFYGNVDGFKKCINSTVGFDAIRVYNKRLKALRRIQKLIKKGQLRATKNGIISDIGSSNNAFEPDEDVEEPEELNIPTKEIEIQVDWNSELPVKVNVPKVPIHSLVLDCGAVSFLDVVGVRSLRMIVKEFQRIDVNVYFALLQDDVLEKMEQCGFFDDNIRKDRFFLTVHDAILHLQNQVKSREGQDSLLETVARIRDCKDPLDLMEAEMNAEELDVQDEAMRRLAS
# Pendrin [2] = biological target: T1, Pendrin; assay: Inhibition of mouse Pendrin stably expressed in FRT cells with YFP assessed as inhibition of pendrin mediated Cl-/NO3- exchange by fluorescence assay; format: cell-based
# Pendrin [3] = biological target: T1, Pendrin; assay: Inhibition of mouse Pendrin stably expressed in FRT cells with YFP assessed as inhibition of pendrin mediated Cl-/HCO3- exchange by fluorescence assay; format: cell-based
# Mus musculus [4] = assay: Diuretic activity in CD-1 mouse assessed as increase in urine volume at 10 to 50 mg/kg,ip with short term administration of furosemide measured after 3 hrs; format: functional; settings: dose 10-50 mg/kg
# Mus musculus [5] = assay: Diuretic activity in C57BL/6 mouse assessed as increase in urine volume at 10 to 50 mg/kg,ip with short term administration of furosemide measured after 3 hrs; format: functional; settings: dose 10-50 mg/kg
# Mus musculus [6] = assay: Diuretic activity in CD-1 mouse assessed as increase in urine volume at 20 mg/kg,ip with long term administration of furosemide measured after 3 hrs; format: functional
# Mus musculus [7] = assay: Diuretic activity in C57BL/6 mouse assessed as increase in urine volume at 20 mg/kg,ip with long term administration of furosemide measured after 3 hrs; format: functional
# Aquaporin-1 = biological target: T2, Aquaporin-1 (Homo sapiens, UniProt P29972); assay: Agonist activity at human AQP1 water channel expressed in Xenopus laevis oocytes assessed as inhibition of AQP1-mediated osmotic swelling; format: cell-based, Oocyte
# T2 sequence (P29972 whole entry): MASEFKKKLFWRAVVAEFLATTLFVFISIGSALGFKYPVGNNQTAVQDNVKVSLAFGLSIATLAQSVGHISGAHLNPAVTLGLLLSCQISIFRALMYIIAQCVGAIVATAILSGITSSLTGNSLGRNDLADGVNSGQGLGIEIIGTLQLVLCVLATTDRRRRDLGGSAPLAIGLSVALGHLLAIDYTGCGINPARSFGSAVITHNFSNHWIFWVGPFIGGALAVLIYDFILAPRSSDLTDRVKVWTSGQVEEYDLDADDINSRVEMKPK
Compound,IC50 (Pendrin [1]) [µM],IC50 (Pendrin [2]) [µM],IC50 (Pendrin [3]) [µM],Activity (Mus musculus [4]) [%],Activity (Mus musculus [5]) [%],Activity (Mus musculus [6]) [%],Activity (Mus musculus [7]) [%],EC50 (Aquaporin-1) [µM]
Cc1n[nH]c(-c2cc(S(=O)(=O)NC3CCCc4ccccc43)c(C)s2)c1C (stereo not drawn),9,5,10,30,30,60,60,
COC(=O)c1cc(S(=O)(=O)NCc2ccccc2)c(Cl)cc1NCc1ccco1,,,,,,,,3.3
